How the values were obtained:
Format in all cases: in vivo
[1] = system: ABUTILON THEOPHRASTI, MEDIC.; assay: Postemergence herbicidal evaluation, ABUTH (Velvetleaf); conditions: for ABUTH, herbicide rating (0-9): rated four to five weeks after treatment, averaged
Method in brief: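 This postemergence herbicide test used two-week-old velvetleaf seedlings grown in jiffy flats. Each compound was sprayed at 40 psi as a dispersion in 50/50 acetone/water with 0.5% TWEEN®20 surfactant. Plants then received routine greenhouse care. After four to five weeks, injury was scored visually on a 0-9 scale against a control, and replicate tests were averaged.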

[2] = system: AMBROSIA ARTEMISIIFOLIA, L.; assay: Postemergence herbicidal evaluation, AMBEL (Ragweed, Common)
Method in brief: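 Postemergence herbicidal activity on AMBEL (common ragweed) was assessed on two-week-old seedlings grown in jiffy flats. Treatment solutions of 50/50 acetone/water with 0.5% TWEEN®20 surfactant were sprayed at 40 psi. After four to five weeks in the greenhouse, plants were scored 0-9 against a control for stand, vigor, malformation, size, chlorosis and overall appearance, with multiple tests averaged.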

CASSIA OBTUSIFOLIA, L. = assay: Postemergence herbicidal evaluation, CASOB (Sicklepod); parameters: key to CASOB rating / Herbicidal effect rating, CASOB / CASOB: 0-9 visual rating scale vs untreated control
Method in brief: (§1)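 Spray: acetone/water 50/50 + 0.5% TWEEN 20; rate ~0.125–0.500 kg/ha; nozzle 40 psi; ~2-wk seedlings. Read: visual 0–9 rating at 4–5 wk post-treatment vs control; replicate tests averaged.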

CHENOPODIUM ALBUM, L. [3] = assay: Postemergence herbicidal evaluation, CHEAL (Lambsquarters, Common)
Method in brief: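 Postemergence herbicidal activity on Chenopodium album was tested by spraying two-week-old seedlings grown in jiffy flats with compound in acetone/water (50/50) plus 0.5% TWEEN®20, using a 40 psi nozzle. Four to five weeks after treatment, stand, vigor, malformation, size, chlorosis and overall appearance were scored 0-9 relative to controls, with repeat tests averaged.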

IPOMOEA SPP. = assay: Postemergence herbicidal evaluation, IPOSS (Morningglory spp.); conditions: for IPOSS, herbicide rating (0-9): rated four to five weeks after treatment, averaged
Method in brief: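 In this greenhouse postemergence herbicide test on Ipomoea spp. (morningglory), compounds in 50/50 acetone/water with 0.5% TWEEN®20 were sprayed at 40 psi onto seedlings about two weeks old grown in jiffy flats. After four to five weeks, injury was scored on a 0-9 scale covering stand, vigor, malformation, size, chlorosis and overall appearance versus control, with repeat tests averaged.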

GALIUM APARINE = assay: Postemergence herbicidal evaluation, GALAP (Galium); parameters: key to GALAP rating / Herbicidal effect rating, GALAP / GALAP: 0-9 visual rating scale vs untreated control
Method in brief: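 In this postemergence greenhouse test, two-week-old Galium aparine seedlings grown in jiffy flats received a 40 psi spray of compound in acetone/water (50/50) with 0.5% TWEEN®20 surfactant. After four to five weeks, stand, vigor, malformation, size, chlorosis and overall appearance were compared with untreated controls on a 0-9 scale, averaging multiple tests.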

[4] = system: ECHINOCHLOA CRUS-GALLI, (L) BEAU; assay: Postemergence herbicidal evaluation, ECHCG (Barnyardgrass); parameters: key to ECHCG rating / Herbicidal effect rating, ECHCG / ECHCG: 0-9 visual rating scale vs untreated control
Method in brief: as §1

[5] = system: SETARIA VIRIDIS, (L) BEAU; assay: Postemergence herbicidal evaluation, SETVI (Foxtail, Green); parameters: key to SETVI rating / Herbicidal effect rating, SETVI / SETVI: 0-9 visual rating scale vs untreated control; conditions: for SETVI, herbicide rating (0-9): rated four to five weeks after treatment, averaged
Method in brief: as §1

[6] = system: TRITICUM AESTIVUM, CV. APOLLO; assay: Postemergence herbicidal evaluation, TRZAWO (Wheat, Winter, CV. APOLLO)
Method in brief: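 This greenhouse postemergence test applied compounds to roughly two-week-old wheat seedlings grown in jiffy flats. The spray solution was 50/50 acetone/water with 0.5% TWEEN®20, a polyoxyethylene sorbitan monolaurate, sprayed from a nozzle run at 40 psi. After four to five weeks of standard greenhouse care, injury was scored from 0 to 9 by comparing stand, vigor, malformation, size, chlorosis and overall appearance with a control. Multiple tests were averaged.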

CHENOPODIUM ALBUM, L. [7] = assay: Preemergence herbicidal evaluation, CHEAL (Lambsquarters, Common); conditions: four to five weeks after treatment
Method in brief: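 Injury scored visually (0–9; stand, vigor, malformation, size, chlorosis) versus untreated control, four to five weeks post-treatment. Application: aqueous acetone spray onto freshly planted soil cups, equivalent to about 0.125 to 0.50 kg/ha, plants then kept under standard greenhouse care.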

[8] = system: ORYZA SATIVA, L. TEBONNET; assay: Rice tolerance to post-transplant applications under flooded paddy conditions, ORYSAT (Rice, Tebonnet); conditions: for ORYSAT herbicidal rating (rice tolerance): post-transplant rice, rated three to four weeks after treatment; for ORYSAT: post-transplanted rice;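 on ORYSAT herbicidal rating (rice tolerance): applied to flooded soil surface three days after transplanting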
Method in brief: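 Rated on a visual 0–9 scale against untreated plants 3–4 weeks after application, rice (cv. Tebonnet) tolerance was tested by applying compounds (approx. 0.5–0.063 kg/ha, acetone/water 50/50) to flooded soil three days post-transplant, water kept 1.5–3 cm deep.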

In the case of COC(=O)Cn1c(=O)n(C)c(=O)n(-c2cc(Oc3c(F)cc(C(F)(F)F)cc3Cl)ccc2F)c1=O [Compound 4, Methyl 3-{5-[(2-chloro-α,α,α,6-tetrafluoro-p-tolyl)oxy]-2-fluorophenyl}tetrahydro-5-methyl-2,4,6-trioxo-s-triazine-1(2H)-acetate], the “Herbicidal effect rating, ABUTH” value ([1]; 0.031 kg/ha) was 8.9, the “Herbicidal effect rating, ABUTH” value ([1]; 0.063 kg/ha) was 8.9 and the “Herbicidal effect rating, ABUTH” value ([1]; 0.125 kg/ha) was 9.0. For the same compound, the “Herbicidal effect rating, ABUTH” value ([1]; 0.250 kg/ha) was 9.0, the “ABUTH, herbicide rating (0-9)” value ([1]; Rate 0.125 kg/ha) was 9.0 and the “ABUTH, herbicide rating (0-9)” value ([1]; Rate 0.250 kg/ha) was 9.0. The “ABUTH, herbicide rating (0-9)” value ([1]; Rate 0.500 kg/ha) was 9.0, the “Herbicidal effect rating, AMBEL” value ([2]; 0.031 kg/ha) was 7.2 and the “Herbicidal effect rating, AMBEL” value ([2]; 0.063 kg/ha) was 8.0. For the same compound, the “Herbicidal effect rating, AMBEL” value ([2]; 0.125 kg/ha) was 8.5, the “Herbicidal effect rating, AMBEL” value ([2]; 0.250 kg/ha) was 8.9 and the “Herbicidal effect rating, CASOB” value (CASSIA OBTUSIFOLIA, L.; 0.031 kg/ha) was 8.6. For the same compound, the “Herbicidal effect rating, CASOB” value (CASSIA OBTUSIFOLIA, L.; 0.063 kg/ha) was 8.4, the “Herbicidal effect rating, CASOB” value (CASSIA OBTUSIFOLIA, L.; 0.125 kg/ha) was 9.0 and the “Herbicidal effect rating, CASOB” value (CASSIA OBTUSIFOLIA, L.; 0.250 kg/ha) was 8.4. The “Herbicidal effect rating, CHEAL” value (CHENOPODIUM ALBUM, L. [3]; 0.031 kg/ha) was 7.9, the “Herbicidal effect rating, CHEAL” value (CHENOPODIUM ALBUM, L. [3]; 0.063 kg/ha) was 8.8 and the “Herbicidal effect rating, CHEAL” value (CHENOPODIUM ALBUM, L. [3]; 0.125 kg/ha) was 8.9. For the same compound, the “Herbicidal effect rating, CHEAL” value (CHENOPODIUM ALBUM, L. [3]; 0.250 kg/ha) was 9.0, the “Herbicidal effect rating, IPOSS” value (IPOMOEA SPP.; 0.031 kg/ha) was 8.9 and the “Herbicidal effect rating, IPOSS” value (IPOMOEA SPP.; 0.063 kg/ha) was 8.9. For the same compound, the “Herbicidal effect rating, IPOSS” value (IPOMOEA SPP.; 0.125 kg/ha) was 9.0, the “Herbicidal effect rating, IPOSS” value (IPOMOEA SPP.; 0.250 kg/ha) was 9.0 and the “IPOSS, herbicide rating (0-9)” value (IPOMOEA SPP.; Rate 0.125 kg/ha) was 9.0. The “IPOSS, herbicide rating (0-9)” value (IPOMOEA SPP.; Rate 0.250 kg/ha) was 9.0, the “IPOSS, herbicide rating (0-9)” value (IPOMOEA SPP.; Rate 0.500 kg/ha) was 9.0 and the “Herbicidal effect rating, GALAP” value (GALIUM APARINE; 0.031 kg/ha) was 7.3. The “Herbicidal effect rating, GALAP” value (GALIUM APARINE; 0.063 kg/ha) was 8.4, the “Herbicidal effect rating, GALAP” value (GALIUM APARINE; 0.125 kg/ha) was 8.8 and the “Herbicidal effect rating, GALAP” value (GALIUM APARINE; 0.250 kg/ha) was 8.1. For the same compound, the “Herbicidal effect rating, ECHCG” value ([4]; 0.031 kg/ha) was 3.8, the “Herbicidal effect rating, ECHCG” value ([4]; 0.063 kg/ha) was 6.0 and the “Herbicidal effect rating, ECHCG” value ([4]; 0.125 kg/ha) was 8.2. The “Herbicidal effect rating, ECHCG” value ([4]; 0.250 kg/ha) was 8.9, the “Herbicidal effect rating, SETVI” value ([5]; 0.031 kg/ha) was 6.9 and the “Herbicidal effect rating, SETVI” value ([5]; 0.063 kg/ha) was 8.6. The “Herbicidal effect rating, SETVI” value ([5]; 0.125 kg/ha) was 9.0, the “Herbicidal effect rating, SETVI” value ([5]; 0.250 kg/ha) was 9.0 and the “SETVI, herbicide rating (0-9)” value ([5]; Rate 0.125 kg/ha) was 9.0. For the same compound, the “SETVI, herbicide rating (0-9)” value ([5]; Rate 0.250 kg/ha) was 9.0, the “SETVI, herbicide rating (0-9)” value ([5]; Rate 0.500 kg/ha) was 9.0 and the “Herbicidal effect rating, TRZAWO” value ([6]; 0.031 kg/ha) was 6.3. The “Herbicidal effect rating, TRZAWO” value ([6]; 0.063 kg/ha) was 7.3, the “Herbicidal effect rating, TRZAWO” value ([6]; 0.125 kg/ha) was 8.1 and the “Herbicidal effect rating, TRZAWO” value ([6]; 0.250 kg/ha) was 8.2. It also gave a CHEAL rating (CHENOPODIUM ALBUM, L. [7]; Rate 0.125 kg/ha) of 9.0, a CHEAL rating (CHENOPODIUM ALBUM, L. [7]; Rate 0.250 kg/ha) of 9.0 and a CHEAL rating (CHENOPODIUM ALBUM, L. [7]; Rate 0.500 kg/ha) of 9.0. For the same compound, the “ORYSAT herbicidal rating (rice tolerance)” value (“ORYSAT herbicidal rating” below) ([8]; Rate 0.063 kg/ha) was 2.0, the “ORYSAT herbicidal rating” value ([8]; Rate 0.125 kg/ha) was 3.2 and the “ORYSAT herbicidal rating” value ([8]; Rate 0.250 kg/ha) was 3.8. For the same compound, the “ORYSAT herbicidal rating” value ([8]; Rate 0.500 kg/ha) was 4.7, the ORYSAT ([8]; Rate 0.031 kg/ha) was 1.6 and the ORYSAT ([8]; Rate 0.063 kg/ha) was 2.1. The ORYSAT ([8]; Rate 0.125 kg/ha) was 3.6 and the ORYSAT ([8]; Rate 0.250 kg/ha) was 3.7.

Source: patent EP0745595A1, “3-(3-Aryloxyphenyl)-1-(substituted methyl)-s-triazine-2,4,6-oxo or thiotrione herbicidal agents” (American Cyanamid Company, priority 1995, dated 1996)
